Assay results: US10059720B2, “Pyridine derivative” (Astellas Pharma Inc., priority 2014, dated 2018)
Where a name gives a salt, the structure may show the parent alone. Read-outs that look alike come from different tables or passages of the source.

What was measured:
[1] = Antidiuresis test in continuously hydrated rats with additional water loading (oral administration); format: in vivo, Male Wistar rats; conditions: for change of plasma sodium level (in words): after three hours and four hours of the administration, additional water loads; for urine production after additional water loads: groups with additional water loads (15 mL/kg at 2 h and 3 h); for urine production after additional water loads / plasma sodium level, 3 hours after administration / plasma sodium level, 4 hours after administration / urine production: EX-a 100 mg/kg, EX-b 30 mg/kg; for urine production after additional water loads / urine production: dDAVP 30 μg/kg oral; for plasma sodium level, 3 hours after administration / plasma sodium level, 4 hours after administration: groups with additional water loads, oral, dDAVP 30 μg/kg; for urine production: groups without additional water loads, after two hours of the administration, maintained until four hours
Protocol: FIG. 1 is a graph showing temporal changes in urine volumes of individual groups in the pharmacological test (4): antidiuresis test in continuously hydrated rats with additional water loading. The vertical axis represents urine volume (mL/30 min) and the horizontal axis represents elapsed time (hr) from the administration of the test compound. Groups represented by “ . . . +Water” are water-loaded groups. The arrows in the horizontal axis represent the time points of additional water-loading.
(4) Antidiuresis Test in Continuously Hydrated Rats with Additional Water Loading (Oral Administration)
Male Wistar rats were used in the test. Initially, water load with 15 mL/kg of distilled water was forcedly administered to the rats. Every 30 minutes after loading water, urine volume collected during 30 minutes was measured and distilled water was forcedly administered to the rats in an amount equal to the urine volume excreted during the last 30 minutes. This water load procedure was repeated to the termination of the test to maintain the diuretic state. […] The individual groups were further divided into two subgroups, and additional distilled water of 15 mL/kg load was forcedly administered to one of the subgroups two times, i.e. at two hours and three hours after the administration. For comparison, the Vehicle group administered only with the vehicle was also subjected to the additional administrations of water load. Blood was collected from a half of the rats in each group subjected to additional administrations of water load, at three hours after the administration (immediately before the second additional water load) and from the other half at four hours after the administration, and plasma sodium levels were measured with an automatic electrolyte analyzer to determine the plasma sodium levels at three hours and four hours after the administration, respectively (each group consisted of seven to eight rats). Changes in the urine volume in individual groups are shown in FIG. 1, and the plasma sodium levels of the group administered with additional water loads are shown in Table 4.

IRAP = IRAP (Rattus norvegicus (Rat), UniProt P97629); test: Inhibition of IRAP activity (AVP degradation by rat epididymal fat pad microsomes, MALDI-MS); conditions: read-out: IRAP IC50
[2] = rat fat pad microsomes, AVP 25 μM, 1 h at 37° C.

Chain of IRAP (P97629 whole entry): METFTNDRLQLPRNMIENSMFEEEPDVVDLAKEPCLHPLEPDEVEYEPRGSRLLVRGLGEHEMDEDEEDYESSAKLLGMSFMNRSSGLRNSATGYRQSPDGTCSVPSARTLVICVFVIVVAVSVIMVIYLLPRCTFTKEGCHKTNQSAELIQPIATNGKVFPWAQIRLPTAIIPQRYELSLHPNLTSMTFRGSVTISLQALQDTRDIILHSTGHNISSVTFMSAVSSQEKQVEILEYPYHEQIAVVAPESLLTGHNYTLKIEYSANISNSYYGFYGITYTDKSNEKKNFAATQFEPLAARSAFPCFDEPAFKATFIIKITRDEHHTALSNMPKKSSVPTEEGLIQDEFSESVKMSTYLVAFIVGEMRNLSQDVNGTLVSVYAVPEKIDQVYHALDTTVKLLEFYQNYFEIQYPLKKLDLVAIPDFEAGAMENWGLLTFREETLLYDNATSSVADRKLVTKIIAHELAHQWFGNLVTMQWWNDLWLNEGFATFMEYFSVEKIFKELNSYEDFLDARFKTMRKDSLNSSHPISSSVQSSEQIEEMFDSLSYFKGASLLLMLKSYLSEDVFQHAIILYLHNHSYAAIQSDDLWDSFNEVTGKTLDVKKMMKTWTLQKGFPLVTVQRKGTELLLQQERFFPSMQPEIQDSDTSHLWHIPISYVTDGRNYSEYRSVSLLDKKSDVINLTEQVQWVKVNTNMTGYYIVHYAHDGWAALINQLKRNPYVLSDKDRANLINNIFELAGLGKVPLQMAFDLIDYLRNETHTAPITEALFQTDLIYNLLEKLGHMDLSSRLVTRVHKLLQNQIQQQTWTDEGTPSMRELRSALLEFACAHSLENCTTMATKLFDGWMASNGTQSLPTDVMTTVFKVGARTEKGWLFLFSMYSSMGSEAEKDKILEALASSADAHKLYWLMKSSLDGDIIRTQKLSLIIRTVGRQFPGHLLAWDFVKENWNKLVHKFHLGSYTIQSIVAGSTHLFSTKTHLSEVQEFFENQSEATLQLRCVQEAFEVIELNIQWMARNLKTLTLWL

| Compound | IC50 (IRAP; [2]) | also measured |
| --- | --- | --- |
| CC(C)C[C@H](N)[C@](O)(Cc1cc(O[C@H]2CC[C@H](C)CC2)ccn1)C(=O)O (relative stereo) [EX-a, (2R,3S)-3-amino-2-hydroxy-5-methyl-2-({4-[(trans-4-methylcyclohexyl)oxy]pyridin-2-yl}methyl)hexanoic acid] |  | change of plasma sodium level (in words) [1]: slightly decreased; urine production after additional water loads [1]: resumed after administration of the additional water loads; plasma sodium level, 3 hours after administration [1]: 134.9 ± 0.4 mmol/L; plasma sodium level, 4 hours after administration [1]: 133.2 ± 0.7 mmol/L; urine production [1]: almost stopped |
| CC(C)C[C@H](N)[C@](O)(Cc1cc(O)ccn1)C(=O)O [7(2), (2R,3S)-3-amino-2-hydroxy-2-[(4-hydroxypyridin-2-yl)methyl]-5-methylhexanoic acid] | 200 nM |  |
| CCSC[C@H](N)[C@](O)(Cc1cc(O[C@H]2CC[C@H](C)CC2)ccn1)C(=O)O [EX-b, (2R,3R)-3-amino-4-(ethylsulfanyl)-2-hydroxy-2-({4-[(trans-4-methylcyclohexyl)oxy]pyridin-2-yl}methyl)butanoic acid] |  | change of plasma sodium level (in words) [1]: slightly decreased; urine production after additional water loads [1]: resumed after administration of the additional water loads; plasma sodium level, 3 hours after administration [1]: 140.4 ± 0.4 mmol/L; plasma sodium level, 4 hours after administration [1]: 139.2 ± 0.5 mmol/L; urine production [1]: almost stopped |
| CC(C)C[C@H](N)[C@@]1(Cc2cc(O[C@H]3CC[C@H](C)CC3)ccn2)OC(C)(C)OC1=O [Example 8, (5R)-5-[(1S)-1-amino-3-methylbutyl]-2,2-dimethyl-5-({4-[(trans-4-methylcyclohexyl)oxy]pyridin-2-yl}methyl)-1,3-dioxolan-4-one dihydrochloride] | 170 nM |  |
| COc1ccnc(C[C@](O)(C(=O)O)[C@@H](N)CC(C)C)c1C [Example 22] | 250 nM |  |
| N[C@@H](c1ccc(C2CC2)cc1)[C@](O)(Cc1cc(OC2CCCCC2)ccn1)C(=O)O [Example 23] | 8.2 nM |  |
| N[C@@H](c1ccc(S(=O)(=O)C2CC2)cc1)[C@](O)(Cc1cc(OC2CCCCC2)ccn1)C(=O)O [Example 24] | 6.2 nM |  |
| COCc1ccc(OC[C@H](N)[C@](O)(Cc2cc(OC3CCCCC3)ccn2)C(=O)O)cc1 [Example 30] | 11 nM |  |
| COc1cc(F)cc(OC[C@H](N)[C@](O)(Cc2cc(OC3CCCCC3)ccn2)C(=O)O)c1 [Example 31] | 27 nM |  |
| CC(C)C[C@H](N)[C@](O)(Cc1cc2c(cn1)ncn2CCC1CCCCC1)C(=O)O [Example 33] | 2.5 nM |  |
| N[C@@H](c1ccc(-c2ccccc2)cc1)[C@](O)(Cc1cc(OC2CCCCC2)ccn1)C(=O)O [Example 36] | 4.9 nM |  |
| N[C@@H](/C=C/c1ccccc1)[C@](O)(Cc1cc(OC2CCCCC2)ccn1)C(=O)O [Example 40] | 8 nM |  |
| CS(=O)(=O)c1ccc(-c2ccc([C@H](N)[C@](O)(Cc3cc(OC4CCCCC4)ccn3)C(=O)O)cc2)cc1 [Example 45] | 0.42 nM |  |
| N[C@@H](c1ccc(N2CCOCC2)cc1)[C@](O)(Cc1cc(OC2CCCCC2)ccn1)C(=O)O [Example 48] | 5.2 nM |  |
| COCc1ccc([C@H](N)[C@](O)(Cc2cc(OC3CCCCC3)ccn2)C(=O)O)cc1 [Example 50] | 14 nM |  |
| N[C@@H](COCc1ccccc1)[C@](O)(Cc1cc(OC2CCCCC2)ccn1)C(=O)O [Example 51] | 13 nM |  |

| Compound | IC50 (IRAP; [2]) | also measured |
| --- | --- | --- |
| COc1cc(C[C@](O)(C(=O)O)[C@@H](N)CC(C)C)ncc1Br [Example 53] | 290 nM |  |
| COc1cc(C[C@](O)(C(=O)O)[C@@H](N)CC(C)C)ncc1COCc1ccccc1 [Example 57] | 130 nM |  |
| CC(C)C[C@H](N)[C@](O)(Cc1cc2c(cn1)OCCO2)C(=O)O [Example 62] | 290 nM |  |
| CC(C)CC[C@H](N)[C@](O)(Cc1cc(OC2CCCCC2)ccn1)C(=O)O [Example 66] | 1.9 nM |  |
| N[C@@H](c1ccc(Br)cc1)[C@](O)(Cc1cc(OC2CCCCC2)ccn1)C(=O)O [Example 68] |  | IC50 (IRAP; value marked *: measured using a dihydrochloride salt of the compound of the Example): 5.4 nM |
| N[C@@H](COc1cccc(Br)c1)[C@](O)(Cc1cc(OC2CCCCC2)ccn1)C(=O)O [Example 70] | 13 nM |  |
| NC(COc1ccccc1Br)C(O)(Cc1cc(OC2CCCCC2)ccn1)C(=O)O (centres unmarked) [Example 71] | 15 nM |  |
| N[C@@H](COCCC(F)(F)F)[C@](O)(Cc1cc(OC2CCCCC2)ccn1)C(=O)O [Example 74] | 5.3 nM |  |
| COCCCCC[C@H](N)[C@](O)(Cc1cc(OC2CCCCC2)ccn1)C(=O)O [Example 75] | 1.2 nM |  |
| Cc1ccc(OC[C@H](N)[C@](O)(Cc2cc(OC3CCCCC3)ccn2)C(=O)O)nc1 [Example 77] | 8.8 nM |  |
| N[C@@H](COC1CCCCC1)[C@](O)(Cc1cc(OCCC2CC2)ccn1)C(=O)O [Example 79] | 33 nM |  |
| C[C@H]1CC[C@H](Oc2ccnc(C[C@](O)(C(=O)O)[C@@H](N)Cn3cccn3)c2)CC1 [Example 85] | 110 nM |  |
| N[C@@H](COc1ccc(F)cc1)[C@](O)(Cc1cc(NC2CCCCC2)ccn1)C(=O)O [Example 91] | 15 nM |  |
| CC(C)C[C@H](N)[C@](O)(Cc1cc(OCCOC2CCCCC2)ccn1)C(=O)O [Example 97] | 2.8 nM |  |
| COc1cccc(Oc2ccnc(C[C@](O)(C(=O)O)[C@@H](N)CC(C)C)c2)c1 [Example 101] | 200 nM |  |
| NC(=O)CC[C@@H]1NC(=O)[C@H](Cc2ccccc2)NC(=O)[C@H](Cc2ccc(O)cc2)NC(=O)CCSSC[C@@H](C(=O)N2CCC[C@H]2C(=O)N[C@H](CCCN=C(N)N)C(=O)NCC(N)=O)NC(=O)[C@H](CC(N)=O)NC1=O [dDAVP, Desmopressin, reference compound] |  | change of plasma sodium level (in words) [1]: more significant decreases; urine production after additional water loads [1]: not resumed; plasma sodium level, 3 hours after administration [1]: 132.0 ± 0.4 mmol/L; plasma sodium level, 4 hours after administration [1]: 128.0 ± 0.3 mmol/L; urine production [1]: almost stopped |
